Data taken from patent US20020137929A1, “1 - (3-heterocyclylphenyl) isothiourea, -isourea, -guanidine and -amidine herbicidal agents” (Intellectual Property Department, BASF Aktiengesellschaft, priority 1998, published 2002).

What was measured:
SETVI (Foxtail, Green) = assay: Preemergence herbicidal evaluation; format: in vivo, Setaria viridis; details: rated 4-5 weeks after treatment
In short: (§1)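 Preemergence soil application of compound, sprayed in aqueous acetone at rates equivalent to about 0.0156 to 0.500 kg per hectare onto freshly sown cups. Plant response was judged by eye on a 0-9 scale four to five weeks later.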

ABUTH (Velvetleaf) = assay: Postemergence herbicidal evaluation; format: in vivo, Abutilon theophrasti
In short: (§2)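 Seedlings grown about two weeks were sprayed at 40 psi with compound dispersed in 50/50 acetone/water plus 0.5% TWEEN 20, at about 0.0156 to 0.500 kg/ha. Plants were kept in the greenhouse and scored 4–5 weeks later on a 0–9 visual scale against untreated controls.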

MOOVA (Monochoria) = assay: Preemergence weed control under flooded paddy conditions; format: in vivo, Monochoria vaginalis; details: rated 3-4 weeks after treatment
In short: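 Ratings on a 0-9 visual scale cover stand, vigor, malformation, size, chlorosis and overall appearance relative to a control, taken three to four weeks post-treatment. Application was into flood water over freshly sown silt loam at roughly 0.0313 to 0.500 kg/ha.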

CYPIR (Rice Flatsedge) = assay: Postemergence weed control under flooded paddy conditions; format: in vivo, Cyperus iria; details: postemergence weeds, 3-4 weeks after treatment
In short: (§3)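 With weeds 3 to 5 cm tall and rice at the 1.5 to 2.5 leaf stage, containers were flooded and water held 1.5 to 3 cm above soil. Compounds in 50/50 v/v aqueous/acetone went into the flood water at about 0.0313 to 0.500 kg/ha a.i. Effects were visually rated 0–9 against controls after three to four weeks in the greenhouse.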

[1] = test system: IPOHE (Morningglory, Ivyleaf); assay: Preemergence herbicidal evaluation; format: in vivo, Ipomoea hederacea; details: rated 4-5 weeks after treatment
In short: as §1

ECHCG (Barnyardgrass) = assay: Preemergence herbicidal evaluation; format: in vivo, Echinochloa crus-galli; details: rated 4-5 weeks after treatment
In short: as §1

[2] = test system: TRZAWR (Wheat, Winter, cv Riband); assay: Preemergence herbicidal evaluation; format: in vivo, Triticum aestivum; details: rated 4-5 weeks after treatment
In short: as §1

[3] = test system: ECHORC (Watergrass (Calif.)); assay: Postemergence weed control under flooded paddy conditions; format: in vivo, Echinochloa oryzoides; details: postemergence weeds, 3-4 weeks after treatment
In short: as §3

[4] = test system: TRZAWR (Wheat, Winter, cv Riband); assay: Postemergence herbicidal evaluation; format: in vivo, Triticum aestivum
In short: as §2

[5] = test system: ECHORC (Watergrass (Calif.)); assay: Preemergence weed control under flooded paddy conditions; format: in vivo, Echinochloa oryzoides; details: rated 3-4 weeks after treatment
In short: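 Seeds or propagules sown in silt loam kept flooded 1.5-3 cm; compounds in 50/50 acetone/water pipetted into flood water at about 0.0313 to 0.500 kg/ha. Greenhouse; visual 0-9 rating versus untreated control 3-4 weeks after treatment.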

[6] = test system: CHEAL (Lambsquarters, Common); assay: Preemergence herbicidal evaluation; format: in vivo, Chenopodium album; details: rated 4-5 weeks after treatment
In short: as §1

[7] = test system: IPOHE (Morningglory, Ivyleaf); assay: Postemergence herbicidal evaluation; format: in vivo, Ipomoea hederacea
In short: as §2

ORYSAT (Rice, Tebonnet) = assay: Preemergence herbicidal evaluation; format: in vivo, Oryza sativa, (L.) Tebonnet; details: rated 4-5 weeks after treatment
In short: as §1

CCOC(=O)CN1C(=O)C[S+]([O-])/C1=N/c1cc(-n2c(=O)cc(C(F)(F)F)n(C)c2=O)c(F)cc1Cl (stereo not shown) [Compound 45, 2-{{2-Chloro-5-[3,6-dihydro-3-methyl-2,6-dioxo-4-(trifluoromethyl)-1(2H)-pyrimidinyl]-4-fluoro-phenyl}imino}-4-oxo-3-thiazolidineacetic acid, ethyl ester, 1-oxide]
Preemergence herbicidal rating SETVI (SETVI (Foxtail, Green); rate 0.0156 kg/ha): 0.0
Preemergence herbicidal rating SETVI (SETVI (Foxtail, Green); rate 0.0313 kg/ha): 0.0
Preemergence herbicidal rating SETVI (SETVI (Foxtail, Green); rate 0.0625 kg/ha): 0.0
Preemergence herbicidal rating SETVI (SETVI (Foxtail, Green); rate 0.1250 kg/ha): 0.0
Preemergence herbicidal rating SETVI (SETVI (Foxtail, Green); rate 0.2500 kg/ha): 0.0
Postemergence herbicidal rating ABUTH (ABUTH (Velvetleaf); Rate 0.0156 kg/ha): 9.0
Postemergence herbicidal rating ABUTH (ABUTH (Velvetleaf); Rate 0.0313 kg/ha): 9.0
Postemergence herbicidal rating ABUTH (ABUTH (Velvetleaf); Rate 0.0625 kg/ha): 9.0
Herbicidal rating MOOVA (MOOVA (Monochoria); 0.0313 kg/ha): 7.0
Herbicidal rating MOOVA (MOOVA (Monochoria); 0.0625 kg/ha): 7.0
Herbicidal rating MOOVA (MOOVA (Monochoria); 0.1250 kg/ha): 9.0
Herbicidal rating MOOVA (MOOVA (Monochoria); 0.2500 kg/ha): 9.0
Herbicidal rating CYPIR (CYPIR (Rice Flatsedge); rate 0.0313 kg/ha): 0.0
Herbicidal rating CYPIR (CYPIR (Rice Flatsedge); rate 0.0625 kg/ha): 3.0
Herbicidal rating CYPIR (CYPIR (Rice Flatsedge); rate 0.1250 kg/ha): 7.0
Herbicidal rating CYPIR (CYPIR (Rice Flatsedge); rate 0.2500 kg/ha): 7.0
Preemergence herbicidal rating IPOHE ([1]; rate 0.0156 kg/ha): 0.0
Preemergence herbicidal rating IPOHE ([1]; rate 0.0313 kg/ha): 0.0
Preemergence herbicidal rating IPOHE ([1]; rate 0.0625 kg/ha): 0.0
Preemergence herbicidal rating IPOHE ([1]; rate 0.1250 kg/ha): 0.0
Preemergence herbicidal rating IPOHE ([1]; rate 0.2500 kg/ha): 1.0
Preemergence herbicidal rating ECHCG (ECHCG (Barnyardgrass); rate 0.0156 kg/ha): 0.0
Preemergence herbicidal rating ECHCG (ECHCG (Barnyardgrass); rate 0.0313 kg/ha): 0.0
Preemergence herbicidal rating ECHCG (ECHCG (Barnyardgrass); rate 0.0625 kg/ha): 0.0
Preemergence herbicidal rating ECHCG (ECHCG (Barnyardgrass); rate 0.1250 kg/ha): 0.0
Preemergence herbicidal rating ECHCG (ECHCG (Barnyardgrass); rate 0.2500 kg/ha): 0.0
Preemergence herbicidal rating TRZAWR ([2]; rate 0.0156 kg/ha): 0.0
Preemergence herbicidal rating TRZAWR ([2]; rate 0.0313 kg/ha): 0.0
Preemergence herbicidal rating TRZAWR ([2]; rate 0.0625 kg/ha): 0.0
Preemergence herbicidal rating TRZAWR ([2]; rate 0.1250 kg/ha): 2.0
Preemergence herbicidal rating TRZAWR ([2]; rate 0.2500 kg/ha): 5.0
Herbicidal rating ECHORC ([3]; rate 0.0313 kg/ha): 3.0
Herbicidal rating ECHORC ([3]; rate 0.0625 kg/ha): 4.0
Herbicidal rating ECHORC ([3]; rate 0.1250 kg/ha): 7.0
Herbicidal rating ECHORC ([3]; rate 0.2500 kg/ha): 7.0
Postemergence herbicidal rating TRZAWR ([4]; Rate 0.0156 kg/ha): 4.0
Postemergence herbicidal rating TRZAWR ([4]; Rate 0.0313 kg/ha): 4.0
Postemergence herbicidal rating TRZAWR ([4]; Rate 0.0625 kg/ha): 4.5
Herbicidal rating ECHORC ([5]; 0.0313 kg/ha): 3.0
Herbicidal rating ECHORC ([5]; 0.0625 kg/ha): 4.0
Herbicidal rating ECHORC ([5]; 0.1250 kg/ha): 7.0
Herbicidal rating ECHORC ([5]; 0.2500 kg/ha): 7.0
Preemergence herbicidal rating CHEAL ([6]; rate 0.0156 kg/ha): 9.0
Preemergence herbicidal rating CHEAL ([6]; rate 0.0313 kg/ha): 9.0
Preemergence herbicidal rating CHEAL ([6]; rate 0.0625 kg/ha): 9.0
Preemergence herbicidal rating CHEAL ([6]; rate 0.1250 kg/ha): 9.0
Preemergence herbicidal rating CHEAL ([6]; rate 0.2500 kg/ha): 9.0
Postemergence herbicidal rating IPOHE ([7]; Rate 0.0156 kg/ha): 9.0
Postemergence herbicidal rating IPOHE ([7]; Rate 0.0313 kg/ha): 9.0
Postemergence herbicidal rating IPOHE ([7]; Rate 0.0625 kg/ha): 9.0
Preemergence herbicidal rating ORYSAT (ORYSAT (Rice, Tebonnet); rate 0.0156 kg/ha): 0.0
Preemergence herbicidal rating ORYSAT (ORYSAT (Rice, Tebonnet); rate 0.0313 kg/ha): 0.0
Preemergence herbicidal rating ORYSAT (ORYSAT (Rice, Tebonnet); rate 0.0625 kg/ha): 0.0
Preemergence herbicidal rating ORYSAT (ORYSAT (Rice, Tebonnet); rate 0.1250 kg/ha): 0.0
Preemergence herbicidal rating ORYSAT (ORYSAT (Rice, Tebonnet); rate 0.2500 kg/ha): 0.0
